# Test results taken from ChEMBL document CHEMBL3217756, “Biological and computational evaluation of an oxadiazole derivative (MD77) as a new lead for direct STAT3 inhibitors” (Medchemcomm, 2012).
# Legend:
# KM12 = assay: Cytotoxicity against human KM12 cells after 48 hrs by sulforhodamine B assay; assay type: functional; details: KM12, 48 h
# LOX IMVI = assay: Cytotoxicity against human LOXIMVI cells after 48 hrs by sulforhodamine B assay; assay type: functional
# 786-0 = assay: Cytotoxicity against human 786-0 cells after 48 hrs by sulforhodamine B assay; assay type: functional; details: 786-0, 48 h
# NCI-H460 = assay: Cytotoxicity against human NCI-H460 cells after 48 hrs by sulforhodamine B assay; assay type: functional; details: NCI-H460, 48 h
# [1] = Cytotoxicity against human OVCAR5 cells after 48 hrs by sulforhodamine B assay; assay type: functional; details: OVCAR-5, 48 h
# IGROV-1 = assay: Cytotoxicity against human IGROV1 cells after 48 hrs by sulforhodamine B assay; assay type: functional; details: IGROV-1, 48 h
# Malme-3M = assay: Cytotoxicity against human MALME-3M cells after 48 hrs by sulforhodamine B assay; assay type: functional
# SNB-19 = assay: Cytotoxicity against human SNB19 cells after 48 hrs by sulforhodamine B assay; assay type: functional; details: SNB-19, 48 h
# SK-MEL-28 = assay: Cytotoxicity against human SK-MEL-28 cells after 48 hrs by sulforhodamine B assay; assay type: functional; details: SK-MEL-28, 48 h
# MDA-MB-435 = assay: Cytotoxicity against human MDA-MB-435 cells after 48 hrs by sulforhodamine B assay; assay type: functional; details: MDA-MB-435, 48 h
# [2] = molecular target: Signal transducer and activator of transcription 3 (Homo sapiens, UniProt P40763); assay: Inhibition of SH2 domain of STAT3 (unknown origin) using (FITC)-GpYLPQTV as substrate at 30 uM preincubated for 15 mins before substrate addition measured after 90 mins by alphascreen based assay
# Sequence of Signal transducer and activator of transcription 3 (P40763 whole entry, the tested form may be a part): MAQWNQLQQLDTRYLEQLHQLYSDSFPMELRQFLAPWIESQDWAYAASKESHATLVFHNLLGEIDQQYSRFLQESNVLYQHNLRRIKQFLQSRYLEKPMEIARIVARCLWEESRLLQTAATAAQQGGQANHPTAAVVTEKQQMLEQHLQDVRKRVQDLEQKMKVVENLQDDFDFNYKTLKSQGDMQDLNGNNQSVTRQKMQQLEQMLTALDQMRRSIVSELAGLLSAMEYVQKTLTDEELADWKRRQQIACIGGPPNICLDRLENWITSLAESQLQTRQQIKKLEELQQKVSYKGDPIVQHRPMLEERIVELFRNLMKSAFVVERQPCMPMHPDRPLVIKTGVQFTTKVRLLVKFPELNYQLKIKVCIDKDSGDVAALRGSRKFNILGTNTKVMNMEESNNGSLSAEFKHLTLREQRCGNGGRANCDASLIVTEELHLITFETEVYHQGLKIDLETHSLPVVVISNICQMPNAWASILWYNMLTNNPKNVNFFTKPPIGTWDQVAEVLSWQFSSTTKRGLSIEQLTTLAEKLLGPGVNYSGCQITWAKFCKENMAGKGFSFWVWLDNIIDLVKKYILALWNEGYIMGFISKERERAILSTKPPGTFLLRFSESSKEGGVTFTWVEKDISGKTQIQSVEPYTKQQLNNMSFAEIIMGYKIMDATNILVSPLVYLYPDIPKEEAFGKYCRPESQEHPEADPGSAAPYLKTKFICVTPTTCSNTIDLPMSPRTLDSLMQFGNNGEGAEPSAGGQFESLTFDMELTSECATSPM
# HOP-62 = assay: Cytotoxicity against human HOP62 cells after 48 hrs by sulforhodamine B assay; assay type: functional; details: HOP-62, 48 h
# BT-549 = assay: Cytotoxicity against human BT549 cells after 48 hrs by sulforhodamine B assay; assay type: functional; details: BT-549, 48 h
# SW-620 = assay: Cytotoxicity against human SW620 cells after 48 hrs by sulforhodamine B assay; assay type: functional; details: SW-620, 48 h
# [3] = Cytotoxicity against human OVCAR4 cells after 48 hrs by sulforhodamine B assay; assay type: functional; details: OVCAR-4, 48 h
# SK-MEL-2 = assay: Cytotoxicity against human SK-MEL-2 cells after 48 hrs by sulforhodamine B assay; assay type: functional; details: SK-MEL-2, 48 h
# [4] = molecular target: Signal transducer and activator of transcription 1-alpha/beta (Homo sapiens, UniProt P42224); assay: Inhibition of SH2 domain of STAT1 (unknown origin) using FITC-GpYDKPHVL as substrate preincubated for 15 mins before substrate addition measured after 90 mins by alphascreen based assay
# Sequence of Signal transducer and activator of transcription 1-alpha/beta (P42224 whole entry, the tested form may be a part): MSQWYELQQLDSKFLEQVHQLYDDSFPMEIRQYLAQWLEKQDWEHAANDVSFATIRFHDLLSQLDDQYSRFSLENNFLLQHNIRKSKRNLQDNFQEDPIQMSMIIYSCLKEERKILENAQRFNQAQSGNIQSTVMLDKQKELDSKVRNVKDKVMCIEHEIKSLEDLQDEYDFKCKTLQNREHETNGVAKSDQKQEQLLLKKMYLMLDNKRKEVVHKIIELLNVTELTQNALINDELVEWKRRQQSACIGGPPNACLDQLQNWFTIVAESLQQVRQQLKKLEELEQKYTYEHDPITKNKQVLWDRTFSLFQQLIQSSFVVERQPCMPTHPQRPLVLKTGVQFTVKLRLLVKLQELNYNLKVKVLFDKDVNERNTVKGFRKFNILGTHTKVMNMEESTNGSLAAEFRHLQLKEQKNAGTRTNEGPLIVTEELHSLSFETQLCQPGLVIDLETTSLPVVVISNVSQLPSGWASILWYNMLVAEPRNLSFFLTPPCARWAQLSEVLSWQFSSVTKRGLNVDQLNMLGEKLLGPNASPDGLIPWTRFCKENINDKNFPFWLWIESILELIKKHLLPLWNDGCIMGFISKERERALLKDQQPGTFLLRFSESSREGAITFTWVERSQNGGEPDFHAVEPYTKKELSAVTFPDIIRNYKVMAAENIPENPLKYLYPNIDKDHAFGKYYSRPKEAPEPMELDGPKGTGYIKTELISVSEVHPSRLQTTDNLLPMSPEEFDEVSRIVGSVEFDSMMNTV
# SF-295 = assay: Cytotoxicity against human SF295 cells after 48 hrs by sulforhodamine B assay; assay type: functional; details: SF-295, 48 h
# MDA-MB-231 = assay: Cytotoxicity against human MDA-MB-231 cells after 48 hrs by sulforhodamine B assay; assay type: functional; details: MDA-MB-231, 48 h
# HL-60(TB) = assay: Cytotoxicity against human HL-60(TB) cells after 48 hrs by sulforhodamine B assay; assay type: functional; details: HL-60, 48 h
# [5] = Cytotoxicity against human UACC257 cells after 48 hrs by sulforhodamine B assay; assay type: functional; details: UACC-257, 48 h
# [6] = read-out: LC50 (the source's name)
# [7] = read-out: pLC50 (the source's name) (converted)
compound,measurement,setting,value
O=C(Nc1nonc1-c1ccc(Cl)cc1)c1ccc(C(F)(F)F)cc1,GI50,KM12; read-out: GI50,3.06 µM
same,CC50,KM12; [6],> 100 µM
same,TGI,KM12; read-out: TGI,> 100 µM
same,GI50,KM12; read-out: pGI50 (converted),3.09 µM
same,CC50,KM12; [7],> 100 µM
same,TGI,KM12; read-out: pTGI,> 100 µM
same,GI50,LOX IMVI; read-out: GI50,0.872 µM
same,LC50,LOX IMVI; read-out: LC50,> 100 µM
same,TGI,LOX IMVI; read-out: TGI,57 µM
same,GI50,LOX IMVI; read-out: pGI50 (converted),0.871 µM
same,LC50,LOX IMVI; read-out: pLC50 (converted),> 100 µM
same,TGI,LOX IMVI; read-out: pTGI (converted),57.5 µM
same,GI50,786-0; read-out: GI50,1.98 µM
same,LC50,786-0; read-out: LC50,> 100 µM
same,TGI,786-0; read-out: TGI,5.19 µM
same,GI50,786-0; read-out: pGI50 (converted),2 µM
same,LC50,786-0; read-out: pLC50 (converted),> 100 µM
same,TGI,786-0; read-out: pTGI,5.25 µM
same,GI50,NCI-H460; read-out: GI50,0.629 µM
same,CC50,NCI-H460; [6],> 100 µM
same,GI50,NCI-H460; read-out: pGI50 (converted),0.631 µM
same,CC50,NCI-H460; [7],> 100 µM
same,GI50,[1]; read-out: GI50,3.98 µM
same,LC50,[1]; read-out: LC50,> 100 µM
same,TGI,[1]; read-out: TGI,96.3 µM
same,GI50,[1]; read-out: pGI50 (converted),3.98 µM
same,LC50,[1]; read-out: pLC50 (converted),> 100 µM
same,TGI,[1]; read-out: pTGI (converted),95.5 µM
same,GI50,IGROV-1; read-out: GI50,4.72 µM
same,LC50,IGROV-1; read-out: LC50,> 100 µM
same,TGI,IGROV-1; read-out: TGI,> 100 µM
same,GI50,IGROV-1; read-out: pGI50 (converted),4.68 µM
same,LC50,IGROV-1; read-out: pLC50 (converted),> 100 µM
same,TGI,IGROV-1; read-out: pTGI,> 100 µM
same,GI50,Malme-3M; read-out: GI50,1.52 µM
same,LC50,Malme-3M; read-out: LC50,> 100 µM
same,TGI,Malme-3M; read-out: TGI,21.8 µM
same,GI50,Malme-3M; read-out: pGI50 (converted),1.51 µM
same,LC50,Malme-3M; read-out: pLC50 (converted),> 100 µM
same,TGI,Malme-3M; read-out: pTGI (converted),21.9 µM
same,GI50,SNB-19; read-out: GI50,3.38 µM
same,CC50,SNB-19; [6],> 100 µM
same,TGI,SNB-19; read-out: TGI,> 100 µM
same,GI50,SNB-19; read-out: pGI50 (converted),3.39 µM
same,CC50,SNB-19; [7],> 100 µM
same,TGI,SNB-19; read-out: pTGI,> 100 µM
same,GI50,SK-MEL-28; read-out: GI50,4.25 µM
same,LC50,SK-MEL-28; read-out: LC50,> 100 µM
same,TGI,SK-MEL-28; read-out: TGI,> 100 µM
same,GI50,SK-MEL-28; read-out: pGI50 (converted),4.27 µM
same,LC50,SK-MEL-28; read-out: pLC50 (converted),> 100 µM
same,TGI,SK-MEL-28; read-out: pTGI,> 100 µM
same,GI50,MDA-MB-435; read-out: GI50,2.15 µM
same,LC50,MDA-MB-435; read-out: LC50,> 100 µM
same,TGI,MDA-MB-435; read-out: TGI,> 100 µM
same,GI50,MDA-MB-435; read-out: pGI50 (converted),2.14 µM
same,LC50,MDA-MB-435; read-out: pLC50 (converted),> 100 µM
same,TGI,MDA-MB-435; read-out: pTGI,> 100 µM
same,inhibition,[2],72%
same,GI50,HOP-62; read-out: GI50,2.93 µM
same,CC50,HOP-62; [6],> 100 µM
same,TGI,HOP-62; read-out: TGI,8.74 µM
same,GI50,HOP-62; read-out: pGI50 (converted),2.95 µM
same,CC50,HOP-62; [7],> 100 µM
same,TGI,HOP-62; read-out: pTGI (converted),8.71 µM
same,GI50,BT-549; read-out: GI50,2.22 µM
same,CC50,BT-549; [6],> 100 µM
same,TGI,BT-549; read-out: TGI,7.66 µM
same,GI50,BT-549; read-out: pGI50 (converted),2.24 µM
same,CC50,BT-549; [7],> 100 µM
same,TGI,BT-549; read-out: pTGI (converted),7.59 µM
same,GI50,SW-620; read-out: GI50,2.82 µM
same,CC50,SW-620; [6],> 100 µM
same,TGI,SW-620; read-out: TGI,> 100 µM
same,GI50,SW-620; read-out: pGI50 (converted),2.82 µM
same,CC50,SW-620; [7],> 100 µM
same,TGI,SW-620; read-out: pTGI,> 100 µM
same,GI50,[3]; read-out: GI50,1.83 µM
same,TGI,[3]; read-out: TGI,4.21 µM
same,GI50,[3]; read-out: pGI50 (converted),1.82 µM
same,TGI,[3]; read-out: pTGI (converted),4.17 µM
same,GI50,SK-MEL-2; read-out: GI50,2.1 µM
same,LC50 (concentration killing 50% of cells),SK-MEL-2; read-out: LC50,> 100 µM
same,TGI,SK-MEL-2; read-out: TGI,5.11 µM
same,GI50,SK-MEL-2; read-out: pGI50 (converted),2.09 µM
same,LC50 (concentration killing 50% of cells),SK-MEL-2; read-out: pLC50 (converted),> 100 µM
same,TGI,SK-MEL-2; read-out: pTGI (converted),5.13 µM
same,IC50,[4],7.2 µM
same,GI50,SF-295; read-out: GI50,1.02 µM
same,CC50,SF-295; [6],43.4 µM
same,TGI,SF-295; read-out: TGI,3.72 µM
same,GI50,SF-295; read-out: pGI50 (converted),1.02 µM
same,CC50,SF-295; [7],> 100 µM
same,TGI,SF-295; read-out: pTGI (converted),3.72 µM
same,GI50,MDA-MB-231; read-out: GI50,2.79 µM
same,LC50,MDA-MB-231; read-out: LC50,> 100 µM
same,TGI,MDA-MB-231; read-out: TGI,7.59 µM
same,GI50,MDA-MB-231; read-out: pGI50 (converted),2.82 µM
same,LC50,MDA-MB-231; read-out: pLC50 (converted),> 100 µM
same,TGI,MDA-MB-231; read-out: pTGI (converted),7.59 µM
same,GI50,HL-60(TB); read-out: GI50,0.546 µM
same,CC50,HL-60(TB); [6],> 100 µM
same,TGI,HL-60(TB); read-out: TGI,2.85 µM
same,GI50,HL-60(TB); read-out: pGI50 (converted),0.55 µM
same,CC50,HL-60(TB); [7],> 100 µM
same,TGI,HL-60(TB); read-out: pTGI (converted),2.88 µM
same,GI50,[5]; read-out: GI50,2.17 µM
same,LC50 (50% lethal concentration),[5]; read-out: LC50,> 100 µM
same,TGI,[5]; read-out: TGI,9.02 µM
same,GI50,[5]; read-out: pGI50 (converted),2.19 µM
same,LC50 (50% lethal concentration),[5]; read-out: pLC50 (converted),> 100 µM
same,TGI,[5]; read-out: pTGI (converted),9.12 µM
